Where two headings read alike, the source gives them in different places.
Columns and labels:
[1] = tested on: S. aureus mutant strain R8.1; assay: microbe, parasite or virus in culture; type: cell-based, Staphylococcus aureus; settings: for MIC: 24 h
Method: (§1) All experiments were performed with S. aureus ATCC6538P. The strain was propagated at 37 °C in Mueller–Hinton Broth (BD Difco^TM) containing 20 mg/L of CaCl2 and 10 mg/L of MgCl2 (MHBC medium). For selection of resistant strains by direct plating, S. aureus cultures were grown until OD600 of 0.7, corresponding to 5 × 10^8 CFU/mL, centrifuged, and resuspended with fresh medium to 1 × 10^10 CFU/mL. Then, 100 µL were spread on Muller–Hinton Agar (BD Difco^TM) supplemented with 160 µg/mL or 640 µg/mL of NAI-112 and incubated at 37 °C. Colonies were scored after 10 days. For selection of resistant mutants by serial passages, MHBC medium containing serial, twofold dilutions of NAI-112, starting from 512 µg/mL down to 0.5 µg/mL, was inoculated with 1 × 10^5 CFU/mL in a 96-well microtiter plate. Cultures were incubated overnight at 37 °C. The culture at the highest concentration that supported growth was diluted to 1 × 10^5 CFU/mL with fresh medium and added to a fresh plate containing serial dilutions of NAI-112 as before, followed by overnight incubation. This process was continued for 15 passages. From cultures at passage 8 (grown at 64 µg/mL) and passage 15 (grown at 256 µg/mL), single colonies were isolated and named R8.1 and R8.2 (from the eighth series) and R15.1–15.5 (from the fifteenth series).
(§2) MICs were determined by the broth microdilution methodology in sterile 96-well microtiter plates according to Clinical and Laboratory Standards Institute (CLSI) guidelines, as described by Iorio et al.. When indicated, bovine serum albumin was added to MHBC medium at 0.02% (w/v). […] Growth curves were measured under the same conditions by recording the optical density at 595 nm (OD595) over 20 h using a Synergy 2.0 plate reader (BioTeck, Winooski, VT, USA).

[2] = tested on: S. aureus mutant strain R15.5; assay: microbe, parasite or virus in culture; type: cell-based, Staphylococcus aureus; settings: for MIC: 24 h; for MIC Ratio (R15.1 to wt): ratio of MICs, mutant to wt
Method: as §1, §2

S. aureus ATCC6538P (wt) = assay: microbe, parasite or virus in culture; type: cell-based, Staphylococcus aureus; settings: 24 h
Method: as §1, §2

[3] = cited from earlier work
[4] = class II lantibiotics; ref [29],[30],[31],[32]; cited from earlier work
Text: A few studies have identified the molecular targets of lanthipeptides. […] Two-peptide lantibiotics, ...

virus = settings: ref [7]; cited from earlier work
Text: (§3) NAI-112 is a labionine (Lab)-containing lanthipeptide with a glycosylated tryptophan residue and an unusual methyl-Lab bridge. It was discovered in a phenotypic screening program for inhibitors of bacterial cell wall biosynthesis. […] At the time of its discovery, there was only one precedent of Lab-containing lanthipeptides, the labyrinthopeptins. In particular, despite having unrelated amino acid sequences, NAI-112 and labyrinthopeptin A2 share a similar ri ...

neuropathic pain = settings: ref [7]; cited from earlier work
Text: as §3

TRPV1 [5] = settings: ref [24], cited from earlier work
Text: The results from the lipidomic experiments in mice, from the binding assay analyzed in MS and from the analysis of the S. aureus mutants resistant to NAI-112, are consistent with the hypothesis that NAI-112 binds to one or more phosphate-containing lipids and, by doing so, interferes with the processing of these lipids by relevant enzymes. In mice, this interference translates in lower LPA levels.

TRPV1 [6] = settings: cited from earlier work
Text: In mice, this interference translates in lower LPA levels.

[7] = class I lanthipeptides, followed by pore formation or membrane disruption, ref [25],[26],[27]

## CC[C@H]1OC(=O)[C@H](C)[C@@H](O[C@H]2C[C@@](C)(OC)[C@@H](O)[C@H](C)O2)[C@H](C)[C@@H](O[C@@H]2O[C@H](C)C[C@H](N(C)C)[C@H]2O)[C@](C)(O)C[C@@H](C)C(=O)[C@H](C)[C@@H](O)[C@]1(C)O [Erythromycin, erythromycin]
[1]; Staphylococcus aureus
  MIC: 0.125 µg/mL
[2]; Staphylococcus aureus
  MIC: 0.125 µg/mL
[2]
  MIC Ratio (R15.1 to wt): 1
S. aureus ATCC6538P (wt); Staphylococcus aureus, ATCC6538P
  MIC: 0.125 µg/mL

## CO[C@H]1/C=C/O[C@@]2(C)Oc3c(C)c(O)c4c(O)c(c(/C=N/N5CCN(C)CC5)c(O)c4c3C2=O)NC(=O)/C(C)=C\C=C\[C@H](C)[C@H](O)[C@@H](C)[C@@H](O)[C@@H](C)[C@H](OC(C)=O)[C@@H]1C [Rifampicin, rifampicin]
[1]; Staphylococcus aureus
  MIC: 0.004 µg/mL
[2]; Staphylococcus aureus
  MIC: 0.004 µg/mL
[2]
  MIC Ratio (R15.1 to wt): 1
S. aureus ATCC6538P (wt); Staphylococcus aureus, ATCC6538P, wt, MHBC medium, 1 × 10^5 CFU/mL, 37 °C, broth microdilution (CLSI), read-out: MIC
  MIC: 0.004 µg/mL

## CN[C@H](CC(C)C)C(=O)N[C@H]1C(=O)N[C@@H](CC(N)=O)C(=O)N[C@H]2C(=O)N[C@H]3C(=O)N[C@H](C(=O)N[C@H](C(=O)O)c4cc(O)cc(O)c4-c4cc3ccc4O)[C@H](O)c3ccc(c(Cl)c3)Oc3cc2cc(c3O[C@@H]2O[C@H](CO)[C@@H](O)[C@H](O)[C@H]2O[C@H]2C[C@](C)(N)[C@H](O)[C@H](C)O2)Oc2ccc(cc2Cl)[C@H]1O [Vancomycin, vancomycin]
[3]; ref [14],[15]
  binding to lipid II: bind to the essential peptidoglycan precursor lipid II
[1]; R8.1
  shift in MIC relative to wt, in words: modest but consistent shift
[1]; R8.1, MHBC medium, 1 × 10^5 CFU/mL, 37 °C, broth microdilution (CLSI)
  MIC: 1 µg/mL
[2]; R15.5
  shift in MIC relative to wt, in words: modest but consistent shift
[2]; R15.5, MHBC medium, 1 × 10^5 CFU/mL, 37 °C, broth microdilution (CLSI)
  MIC: 2 µg/mL
[2]
  MIC Ratio (R15.1 to wt): 4
S. aureus ATCC6538P (wt); wt, MHBC medium, 1 × 10^5 CFU/mL, 37 °C, broth microdilution (CLSI)
  MIC: 0.5 µg/mL

## cinnamycin
[4]
  binding to phosphatidylethanolamine-containing lipids: bind to phosphatidylethanolamine-containing lipids

## duramycin
[4]
  binding to phosphatidylethanolamine-containing lipids: bind to phosphatidylethanolamine-containing lipids

## gallidermin
[3]; [7]
  binding to lipid II: bind to lipid II

## labyrinthopeptin A2
virus
  antiviral activity: moderate antiviral activity
Neuropathic pain
  activity in a neuropathic pain model: highly active

## lacticin 3147
[3]; through mersacidin-like component, ref [33]
  complex with lipid II: form a complex with lipid II

## lysophosphatidic acid [LPA]
TRPV1 [5]; Trpv1-null animals
  acute pain-like behaviors: substantially reduced
TRPV1 [5]; control mice
  acute pain-like behaviors: produces acute pain-like behaviors
TRPV1 [6]; ref [10],[11]
  TRPV1 receptor activation: activates the TRPV1 receptor
TRPV1 [6]; ref [24]
  direct binding to TRPV1 ion channel: LPA binding directly to an ion channel

## mersacidin
[3]; class II lantibiotics, ref [28]
  binding to lipid II: bind to lipid II

## nisin
[3]; [7]
  binding to lipid II: bind to lipid II
[3]; in membranes of bacterial cells, ref [34]
  binding to pyrophosphate cage of lipid II: binding of nisin to the pyrophosphate cage of lipid II

## ramoplanin
[3]; ref [14],[15]
  binding to lipid II: bind to the essential peptidoglycan precursor lipid II
[1]; R8.1
  shift in MIC relative to wt, in words: modest but consistent shift
[1]; R8.1, in the presence of 0.02% BSA, MHBC medium, 1 × 10^5 CFU/mL, 37 °C
  MIC: 0.25 µg/mL
[2]; R15.5
  shift in MIC relative to wt, in words: modest but consistent shift
[2]; R15.5, in the presence of 0.02% BSA, MHBC medium, 1 × 10^5 CFU/mL, 37 °C
  MIC: 0.25 µg/mL
[2]; in the presence of 0.02% BSA
  MIC Ratio (R15.1 to wt): 4
S. aureus ATCC6538P (wt); wt, in the presence of 0.02% BSA, MHBC medium, 1 × 10^5 CFU/mL, 37 °C
  MIC: 0.06 µg/mL

From paper PMC8624038, “Understanding the Mechanism of Action of NAI-112, a Lanthipeptide with Potent Antinociceptive Activity” (Molecules, 2021)
